Data published in ChEMBL document CHEMBL5046254, “Mycobactin Analogues with Excellent Pharmacokinetic Profile Demonstrate Potent Antitubercular Specific Activity and Exceptional Efflux Pump Inhibition” (J Med Chem, 2022).
Converted amounts (≈) assume the structure as drawn. The source made the active and inactive calls. The rule behind the calls is not given here.

Assays:
[1] = system: Mycolicibacterium smegmatis; test: Antibacterial activity against Mycobacterium smegmatis mc2155 ATCC 700084 cultured in iron supplemented medium assessed as inhibition of siderophore production at 4 ug/ml measured after 3 hrs by CAS assay relative to control; format: functional; set-up: scale not given: the % may be the effect or the level left; conditions: dose 4 µg/ml
[2] = Hepatic clearance in Sprague-Dawley rat at 1 mg/kg, iv; format: ADME, organism-based, Liver; conditions: in vivo
[3] = Selectivity index, ratio of GIC90 for cytotoxicity against mouse RAW264.7 cells to MIC90 for Antitubercular activity against Mycobacterium smegmatis mc2155 ATCC 700084; format: toxicity, cell-based; conditions: read-out: Selectivity Index
[4] = AUClast in Sprague-Dawley rat at 5 mg/kg, po; format: ADME, organism-based; set-up: time 0 - last, route oral, dose 5 mg/kg; conditions: in vivo
[5] = AUClast in Sprague-Dawley rat at 1 mg/kg, iv; format: ADME, organism-based; set-up: route intravenous, time 0 - last, dose 1 mg/kg; conditions: in vivo
[6] = AUCinfinity in Sprague-Dawley rat at 5 mg/kg, po; format: ADME, organism-based; set-up: time infinity, route oral, dose 5 mg/kg; conditions: in vivo
[7] = system: Mycobacterium tuberculosis; test: microbe, parasite or virus in culture; conditions: H37Rv ATCC 27294, 192 h
[8] = Selectivity index, ratio of GIC90 for Cytotoxicity against human THP-1 cells to MIC90 for Antitubercular activity against Mycobacterium aurum ATCC 10437; format: toxicity, cell-based; conditions: read-out: Selectivity Index
[9] = Tlast in Sprague-Dawley rat at 5 mg/kg, po; format: ADME, organism-based; conditions: in vivo
[10] = AUCinfinity in Sprague-Dawley rat at 1 mg/kg, iv; format: ADME, organism-based; set-up: time infinity, route intravenous, dose 1 mg/kg; conditions: in vivo
[11] = Cmax in Sprague-Dawley rat at 5 mg/kg, po; format: ADME, organism-based; set-up: route oral, dose 5 mg/kg; conditions: in vivo
[12] = system: Mycobacterium tuberculosis; test: microbe, parasite or virus in culture; conditions: H37Rv ATCC 27294, 192 h; remark: listed apart in the source
[13] = Oral bioavailability in Sprague-Dawley rat at 5 mg/kg; format: ADME, organism-based; conditions: in vivo
[14] = system: Mycolicibacterium smegmatis; test: Bactericidal activity against Mycobacterium smegmatis mc2155 ATCC 700084 assessed as inhibition of bacterial growth preincubated for 48 hrs followed by agar surface scraped and transfer to GAST medium and measured after 5 days by HT-SPOTi assay; format: functional, organism-based; conditions: time 7.0 day
[15] = Elimination half life in Sprague-Dawley rat at 5 mg/kg, po; format: ADME, organism-based; conditions: in vivo, read-out: beta t1/2 (converted)
[16] = system: Mycolicibacterium aurum; test: Antimycobacterial activity against Mycobacterium aurum ATCC 10437 cultured in GAST-Fe media incubated for 72 hrs by resazurin microtiter assay; format: functional
[17] = Selectivity index, ratio of GIC90 for Cytotoxicity against […] human THP-1 cells to MIC90 for Antitubercular activity against Mycobacterium bovis BCG ATCC 35734; format: toxicity, cell-based; conditions: read-out: Selectivity Index
[18] = Elimination half life in Sprague-Dawley rat at 1 mg/kg, iv; format: ADME, organism-based; conditions: in vivo, read-out: beta t1/2 (converted)
[19] = biological target: T1, Salicyl-AMP ligase / salicyl-S-ArCP synthetase (Mycobacterium tuberculosis) (UniProt P71716); test: Binding affinity to Mycobacterium tuberculosis MbtA assessed as change in thermal stability at 100 uM incubated for 1 hr in presence of ATP at pH 8.5 by thermo fluorometer analysis
T1 sequence (whole entry): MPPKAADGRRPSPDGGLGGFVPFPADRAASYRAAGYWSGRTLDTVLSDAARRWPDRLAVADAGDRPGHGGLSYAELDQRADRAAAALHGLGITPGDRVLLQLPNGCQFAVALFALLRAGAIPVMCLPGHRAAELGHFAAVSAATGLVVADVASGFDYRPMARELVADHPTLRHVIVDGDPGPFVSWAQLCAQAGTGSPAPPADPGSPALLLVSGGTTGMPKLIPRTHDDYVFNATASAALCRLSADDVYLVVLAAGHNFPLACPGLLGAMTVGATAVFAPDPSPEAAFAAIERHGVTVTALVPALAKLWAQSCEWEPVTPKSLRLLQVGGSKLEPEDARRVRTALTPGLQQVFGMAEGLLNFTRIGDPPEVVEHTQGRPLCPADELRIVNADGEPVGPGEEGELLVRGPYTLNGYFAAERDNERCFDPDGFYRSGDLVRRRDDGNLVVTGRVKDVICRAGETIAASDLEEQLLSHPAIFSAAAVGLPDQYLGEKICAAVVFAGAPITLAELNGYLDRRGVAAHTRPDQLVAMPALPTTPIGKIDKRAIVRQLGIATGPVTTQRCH

[20] = system: Mycolicibacterium smegmatis; test: Synergistic antibacterial activity against Mycobacterium smegmatis mc2155 ATCC 700084 assessed as fractional inhibitory concentration in presence of isoniazid by checker board assay; format: functional
[21] = Selectivity index, ratio of GIC90 for Cytotoxicity against mouse RAW264.7 cells to MIC90 for Antitubercular activity against Mycobacterium bovis BCG ATCC 35734; format: toxicity, cell-based; conditions: read-out: Selectivity Index
[22] = system: Mycolicibacterium aurum; test: Antimycobacterial activity against Mycobacterium aurum ATCC 10437 infected in RAW264.7 cells assessed as inhibition of growth at 16 ug/ml incubated for 72 hrs by SPOTi assay; format: functional; set-up: scale not given: the % may be the effect or the level left; conditions: dose 16 µg/ml
[23] = Cmax in Sprague-Dawley rat at 1 mg/kg, iv; format: ADME, organism-based; set-up: route intravenous, dose 1 mg/kg; conditions: in vivo
[24] = Selectivity index, ratio of GIC90 for Cytotoxicity against mouse RAW264.7 cells MIC90 for Antitubercular activity against Mycobacterium aurum ATCC 10437; format: toxicity, cell-based; conditions: read-out: Selectivity Index
[25] = system: Mycolicibacterium smegmatis; test: Antitubercular activity against Mycobacterium smegmatis mc2155 ATCC 700084 cultured in GAST media incubated for 24 hrs by resazurin microtiter assay; format: functional
[26] = Selectivity index, ratio of GIC90 for cytotoxicity against human THP-1 cells to MIC90 for Antitubercular activity against Mycobacterium smegmatis mc2155 ATCC 700084; format: toxicity, cell-based; conditions: read-out: Selectivity Index
[27] = system: Mycolicibacterium smegmatis; test: Synergistic antibacterial activity against Mycobacterium smegmatis mc2155 ATCC 700084 assessed as fractional inhibitory concentration in presence of rifampicin by checker board assay; format: functional
[28] = Tlast in Sprague-Dawley rat at 1 mg/kg, iv; format: ADME, organism-based; conditions: in vivo
[29] = Volume of distribution at steady state in Sprague-Dawley rat at 1 mg/kg, iv; format: ADME, organism-based; conditions: in vivo
[30] = system: RAW264.7; test: Cytotoxicity against mouse RAW264.7 cell assessed as inhibition of growth measured for 48 hrs by resazurin microtiter assay; format: functional
[31] = system: THP-1; test: Cytotoxicity against human THP-1 cells assessed as inhibition of growth measured for 48 hrs by resazurin microtiter assay; format: functional
[32] = system: Mycolicibacterium smegmatis; test: Antitubercular activity against Mycobacterium smegmatis mc2155 ATCC 700084 cultured in GAST-Fe media incubated for 24 hrs by resazurin microtiter assay; format: functional
[33] = biological target: T1, Salicyl-AMP ligase / salicyl-S-ArCP synthetase (Mycobacterium tuberculosis); test: Binding affinity to Mycobacterium tuberculosis MbtA assessed as change in thermal stability at 100 uM incubated for 1 hr in presence of ATP at pH 7.5 by thermo fluorometer analysis
[34] = system: Mycolicibacterium smegmatis; test: Antibacterial activity against Mycobacterium smegmatic mc2155 ATCC 700084 assessed as inhibition of efflux pump using ethidium bromide as substrate measured every min for 45 mins; format: functional, organism-based
[35] = system: Mycolicibacterium aurum; test: Antimycobacterial activity against Mycobacterium aurum ATCC 10437 cultured in GAST media incubated for 72 hrs by resazurin microtiter assay; format: functional
[36] = system: Mycolicibacterium smegmatis; test: Bacteriostatic activity against Mycobacterium smegmatis mc2155 ATCC 700084 assessed as inhibition of bacterial growth preincubated for 48 hrs followed by agar surface scraped and transfer to GAST medium and measured after 5 days by HT-SPOTi assay; format: functional, organism-based; conditions: time 7.0 day

SMILES | Activity [1] [%] | CLH [2] [mL/min/kg] | selectivity ratio [3] | AUC(0-t) [4] [ng·h/mL] | AUC(0-t) [5] [ng·h/mL] | AUC(0-inf) [6] [ng·h/mL] | MIC90 [7] [µg/mL] | selectivity ratio [8] | Tlast [9] [h] | AUC(0-inf) [10] [ng·h/mL] | Cmax [11] [ng/mL] | MIC90 [12] [µg/mL] | bioavailability [13] [%] | half-life [15] [h] | MIC90 [16] [µg/mL] | selectivity ratio [17] | half-life [18] [h] | Tm [19] [°C] | FIC [20] | selectivity ratio [21] | other results
Oc1ccccc1C1=NNC(c2ccc(Cl)cc2)C1 (stereo not given) | 54.7 | 84.8 | 32 | 203 | 190 | 215 | 128 (≈ 469 µM) | 8 | 24 | 197 | 51.6 | 16 (≈ 58.7 µM) | 21 | 6.06 | 128 (≈ 469 µM) | 16 | 4.76 | 2 | 0.6 | 16 | Activity [14]: Active; Activity [22]: 90%; Cmax [23]: 448 ng/mL; selectivity ratio [24]: 8; MIC90 [25]: 4 µg/mL (≈ 14.7 µM); selectivity ratio [26]: 16; FIC [27]: 1.12; Tlast [28]: 12 h; Vdss [29]: 11.5 kg/L; GI90 [30]: 128 µg/mL (≈ 469 µM); GI90 [31]: 64 µg/mL (≈ 235 µM); MIC90 [32]: 64 µg/mL (≈ 235 µM); Tm [33]: 2 °C; Activity [34]: Active; MIC90 [35]: 16 µg/mL (≈ 58.7 µM)
Oc1ccccc1C1=NNC(c2ccc(Br)cc2)C1 (stereo not given) | 51.76 | 100 | 32 | 167 | 155 | 184 | 128 (≈ 404 µM) | 8 | 24 | 167 | 47.4 | 8 (≈ 25.2 µM) | 22 | 5.32 | 128 (≈ 404 µM) | 16 | 5.42 | 2.5 | 0.6 | 16 | Activity [36]: Active; Activity [22]: 90%; Cmax [23]: 505 ng/mL; selectivity ratio [24]: 8; MIC90 [25]: 4 µg/mL (≈ 12.6 µM); selectivity ratio [26]: 16; FIC [27]: 1.12; Tlast [28]: 12 h; Vdss [29]: 17.3 kg/L; GI90 [30]: 128 µg/mL (≈ 404 µM); GI90 [31]: 64 µg/mL (≈ 202 µM); MIC90 [32]: 64 µg/mL (≈ 202 µM); Tm [33]: 2 °C; Activity [34]: Active; MIC90 [35]: 8 µg/mL (≈ 25.2 µM)
